The values that follow come from patent US20230416329A1, “A PEPTIDE WITH DISULFIDE BONDS AND INHIBITORY ACTIVITY AGAINST SERINE PROTEASES, DERIVED HYBRID PEPTIDES THEREOF, AND USES THEREOF” (INSTITUTE OF MATERIA MEDICA , CHINESE ACADEMY OF MEDICAL …, priority 2020, published 2023).

What is called IC50 is the concentration needed to halve the response being measured. Read a low IC50 as greater potency. As usually defined, the Ki is a dissociation constant, usually derived from enzyme kinetics or from competition with a known ligand.

A short description of data set [1]: Stability of GLP-1 and its analogues in human serum. The following applies: 25% (v/v) human serum; for Remaining peak area (%)/human serum: 0.0 h, peptide 0.03 mM, 37° C.; for remaining at 0.5 h, 0.03 mM / remaining at 2 h, 0.03 mM / remaining at 4 h, 0.03 mM / remaining at 8 h, 0.03 mM / remaining at 12 h, 0.03 mM: human, pH 7.
Method: The amount of the prototype peptide at 0 h was taken as 100%. At different time point, 100 μL aliquots was taken out, and 300 μL precooled anhydrous methanol was added to terminate the reaction. The remaining percentage (%) of the peptide relative to the prototype peptide at that time point was analyzed by reverse phase high performance liquid chromatography. The experiment was performed with three replicates, and data were expressed as “mean±standard deviation”. The sample was subjected to high-speed centrifugation, supernatant extraction, and freeze drying, followed by dissolution in 50% (v/v) methanol/water solution, and analyzed by reverse phase high performance liquid chromatography. The experiment was performed with three replicates, and data were expressed as “mean±standard deviation”.
Invert and mix thoroughly, then leave at −20° C. overnight. At the same time, take three sterile EP tubes and add 25 μL of human serum, 75 μL of 50 mM Tris-HCl buffer (pH7.0), and 300 μL of pre-cold absolute methanol. Invert and mix thoroughly, then leave at −20° C. overnight as a negative control, so as to eliminate the interference of proteins or peptides contained in human serum at the peak time of the target peptide after methanol precipitation.
Arrange a certain volume of human serum in another sterile EP. Incubate the EP tubes containing peptides and serum at 37° C. for 10 min, and add 137.5 μL of human serum to each EP tube containing peptides and mix well. […] Start timing and remove 100 μL of reaction solution at 0.5, 2.0, 4.0, 8.0, and 12.0 h later, respectively. Add 300 μL of pre-cold absolute methanol. Invert and mix thoroughly, then leave at −20° C. overnight. […] There are three replicates at each time point, and the peak area of the peptide at each time point is detected using reverse phase high-performance liquid chromatography (RP-HPLC). The ratio of the remaining peak area of the sample at detection time T (h) to the peak area of the prototype peptide at 0 h is calculated as the remaining percentage (%) of the peptide.
For data set [2], the target named is chymotrypsin (Bos taurus, UniProt P00766). As to the kind of experiment: in vitro. The following applies: for remaining at 0.025 h, 60 μM / remaining at 0.05 h, 60 μM / remaining at 0.075 h, 60 μM / remaining at 0.1 h, 60 μM / remaining at 0.15 h, 60 μM / remaining at 0.25 h, 60 μM / remaining at 0.5 h, 60 μM / remaining at 1 h, 60 μM: isolated enzyme chymotrypsin, pH 7.8, Remaining peak area (%)/chymotrypsin. The protocol: FIG. 18. […] At different time point, 25 μL aliquots was taken out, and 10% (v/v) TFA was added to terminate the reaction.
(§1) Mix by centrifugation at 8000 rpm for 30 seconds.
Arrange a certain volume of 0.05 μg/μL chymotrypsin solution in another sterile EP. Incubate the EP tubes containing peptides and enzymes at 37° C. for 5 min, and add 3 μL of […] solution to each EP tube containing peptides and mix well. Start timing and extract 25 μL of reaction solution at 1.5, 3.0, 4.5, 6.0 and 9.0 min later, respectively. Add 3.75 μL of 10% TFA to terminate the reaction and mix well by centrifugation at 8000 rpm for 30 seconds.
Arrange a certain volume of 0.05 μg/μL chymotrypsin solution in another sterile EP. Incubate the EP tubes containing peptides and enzymes at 37° C. for 5 min, and then add 4.5 μL of chymotrypsin solution to each EP tube containing peptides and mix well. Start timing and extract 25 μL of reaction solution at 1.5, 3.0, 4.5, 6.0, 9.0, 15.0, 30.0, and 60.0 min later, respectively. Add 3.75 μL of 10% TFA to terminate the reaction and mix well by centrifugation at 8000 rpm for 30 seconds.
Referring to the experimental method in Example 5, in vitro stability of salmon Calcitonin analogs with oral administration activity to the enzymatic hydrolysis by trypsin, chymotrypsin and elastase were performed.
Referring to the experimental method in Example 5, in vitro stability of IL-17A inhibitory peptides towards the enzymatic hydrolysis by trypsin, chymotrypsin and elastase were performed.

Data set [3] deals with DPP-IV (Homo sapiens, UniProt P27487). Kind of data set: Tolerance of GLP-1 and its analogues to DPP-IV (RP-HPLC remaining peak area). The following applies: peptide 25 μM, DPP-IV 0.5 ng/μL, 37° C.; for Remaining peak area (%)/DPP-IV: 0.0 h; for remaining at 0.5 h, 25 μM / remaining at 2 h, 25 μM / remaining at 4 h, 25 μM / remaining at 8 h, 25 μM / remaining at 12 h, 25 μM: isolated DPP-IV enzyme in buffer, pH 8. It is filed as in vitro ADME. Here is the method:
as §1
(2) Arrange a certain volume of 0.005 μg/μL DPP-IV solution in another sterile EP.

The target of data set [4] is porcine pancreatic elastase (Sus scrofa, UniProt P00772). Kind of data set: Elastase inhibitory activity of peptides (AAApNA hydrolysis; IC50, Ki, residual activity). The following applies: for IC50 / Residual activity of elastase: elastase 0.5 μM, AAApNA 1 mM; for Ki: read-out: Ki. It is filed as biochemical. An outline of the steps: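 Porcine pancreatic elastase, 0.5 μM final, was preincubated with peptide for 10 min at 37° C in 20 mM CaCl2, 50 mM Tris-HCl pH 8.0. AAApNA (1 mM final) was then added for 60 min and A405 read. Residual activity gave IC50, converted to Ki via IC50/(1+S/Km) using measured Km.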

Bridge positions count the residues as written; N and C are the ends. Peptide text beside a SMILES is read from it.

Sequence of porcine pancreatic elastase (P00772 27-266): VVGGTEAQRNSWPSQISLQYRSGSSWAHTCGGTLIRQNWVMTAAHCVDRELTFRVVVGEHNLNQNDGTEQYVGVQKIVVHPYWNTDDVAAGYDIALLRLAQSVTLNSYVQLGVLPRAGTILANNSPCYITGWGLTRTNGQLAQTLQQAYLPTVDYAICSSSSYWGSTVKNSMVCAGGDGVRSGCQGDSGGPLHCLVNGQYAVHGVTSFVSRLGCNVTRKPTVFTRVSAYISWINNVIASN
Sequence of DPP-IV (P27487 whole entry, species assumed): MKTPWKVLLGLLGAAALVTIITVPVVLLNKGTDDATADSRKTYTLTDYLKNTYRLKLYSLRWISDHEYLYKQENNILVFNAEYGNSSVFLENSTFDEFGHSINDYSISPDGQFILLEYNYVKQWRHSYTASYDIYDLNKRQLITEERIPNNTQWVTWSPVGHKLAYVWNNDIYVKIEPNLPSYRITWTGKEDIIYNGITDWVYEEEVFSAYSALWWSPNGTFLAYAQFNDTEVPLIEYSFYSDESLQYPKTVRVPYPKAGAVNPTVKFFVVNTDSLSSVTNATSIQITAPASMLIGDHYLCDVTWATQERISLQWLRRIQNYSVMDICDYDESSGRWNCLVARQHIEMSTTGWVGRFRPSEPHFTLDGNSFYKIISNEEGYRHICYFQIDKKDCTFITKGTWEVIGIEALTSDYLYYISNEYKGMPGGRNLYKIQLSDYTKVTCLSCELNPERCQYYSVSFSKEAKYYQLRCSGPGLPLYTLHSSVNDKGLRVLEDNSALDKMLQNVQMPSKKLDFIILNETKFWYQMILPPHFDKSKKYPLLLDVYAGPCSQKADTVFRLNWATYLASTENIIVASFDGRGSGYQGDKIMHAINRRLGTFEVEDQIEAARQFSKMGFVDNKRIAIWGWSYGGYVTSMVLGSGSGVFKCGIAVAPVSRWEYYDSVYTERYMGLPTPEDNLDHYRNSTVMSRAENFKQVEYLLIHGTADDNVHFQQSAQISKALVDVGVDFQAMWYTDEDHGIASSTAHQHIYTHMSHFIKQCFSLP

On to `CC[C@H](C)[C@H](NC(=O)[C@H](Cc1ccccc1)NC(=O)[C@H](CCC(=O)O)NC(=O)[C@H](CCCCN)NC(=O)[C@H](C)NC(=O)[C@H](C)NC(=O)[C@H](CCC(N)=O)NC(=O)CNC(=O)[C@H](CCC(=O)O)NC(=O)[C@H](CC(C)C)NC(=O)[C@H](Cc1ccc(O)cc1)NC(=O)[C@H](CO)NC(=O)[C@H](CO)NC(=O)[C@@H](NC(=O)[C@H](CC(=O)O)NC(=O)[C@H](CO)NC(=O)[C@@H](NC(=O)[C@H](Cc1ccccc1)NC(=O)[C@@H](NC(=O)CNC(=O)[C@H](CCC(=O)O)NC(=O)[C@H](C)NC(=O)[C@H](Cc1c[nH]cn1)NC(=O)CNC(=O)CNC(=O)[C@@H](NC(=O)[C@@H]1CCCN1C(=O)[C@@H](NC(=O)CN)[C@@H](C)CC)[C@@H](C)CC)[C@@H](C)O)[C@@H](C)O)C(C)C)C(=O)N[C@@H](C)C(=O)N[C@@H](Cc1c[nH]c2ccccc12)C(=O)N[C@@H](CC(C)C)C(=O)N[C@H](C(=O)N[C@@H](CCCCN)C(=O)NCC(=O)N[C@@H](CCCNC(=N)N)C(=O)NCC(=O)NCC(=O)N[C@@H](CCCCN)C(=O)NCC(=O)N[C@@H](CO)C(=O)N[C@H]1CSSC[C@@H](C(=O)N[C@@H](Cc2ccc(O)cc2)C(=O)NCC(=O)O)NC(=O)[C@H](CCC(N)=O)NC(=O)[C@@H]2CCCN2C(=O)[C@@H]2CCCN2C(=O)[C@H]([C@@H](C)CC)NC(=O)[C@H](CO)NC(=O)[C@H](Cc2ccc(O)cc2)NC(=O)[C@H]([C@@H](C)O)NC1=O)C(C)C` [D-GLP-1-CH4], for which, in data set [1], the “Remaining peak area (%)/human serum” value came to 100.0 ± 0.0%; the share remaining at 0.5 h, 0.03 mM is 106 ± 15.8%; the share remaining at 2 h, 0.03 mM turned out to be 97.6 ± 5.4%; the amount remaining at 4 h, 0.03 mM was 83 ± 3.1%. In data set [1], the share remaining at 8 h, 0.03 mM was found to be 64 ± 6.8% and the fraction remaining at 12 h, 0.03 mM turned out to be 58.2 ± 10%. In addition, in data set [2], the fraction remaining at 0.025 h, 60 μM was 80.9 ± 1.7%; the fraction remaining at 0.05 h, 60 μM was 78 ± 2.9%; the share remaining at 0.075 h, 60 μM was 83.2 ± 0.3%; the fraction remaining at 0.1 h, 60 μM was found to be 83.9 ± 3%. For the same molecule, in data set [2], the fraction remaining at 0.15 h, 60 μM worked out at 82.4 ± 3.9%; the amount remaining at 0.25 h, 60 μM was determined as 78.5 ± 2.1%; the fraction remaining at 0.5 h, 60 μM was 81.3 ± 2.8%; the amount remaining at 1 h, 60 μM stood at 76.3 ± 2.7%. In data set [3], the “Remaining peak area (%)/DPP-IV” value was 100.0 ± 0.0%; the amount remaining at 0.5 h, 25 μM was 81.6 ± 1.9%; the share remaining at 2 h, 25 μM stood at 76.4 ± 4.2%; the share remaining at 4 h, 25 μM is 80.8 ± 1.4%. In data set [3], the share remaining at 8 h, 25 μM amounted to 75.1 ± 2.4% and the share remaining at 12 h, 25 μM worked out at 71 ± 3%.
On to `CC[C@H](C)[C@H](NC(=O)[C@H](Cc1ccccc1)NC(=O)[C@H](CCC(=O)O)NC(=O)[C@H](CCCCN)NC(=O)[C@H](C)NC(=O)[C@H](C)NC(=O)[C@H](CCC(N)=O)NC(=O)CNC(=O)[C@H](CCC(=O)O)NC(=O)[C@H](CC(C)C)NC(=O)[C@H](Cc1ccc(O)cc1)NC(=O)[C@H](CO)NC(=O)[C@H](CO)NC(=O)[C@@H](NC(=O)[C@H](CC(=O)O)NC(=O)[C@H](CO)NC(=O)[C@@H](NC(=O)[C@H](Cc1ccccc1)NC(=O)[C@@H](NC(=O)CNC(=O)[C@H](CCC(=O)O)NC(=O)[C@H](C)NC(=O)[C@H](Cc1c[nH]cn1)NC(=O)CNC(=O)CNC(=O)[C@@H](NC(=O)[C@@H]1CCCN1C(=O)[C@@H](NC(=O)CN)[C@@H](C)CC)[C@@H](C)CC)[C@@H](C)O)[C@@H](C)O)C(C)C)C(=O)N[C@@H](C)C(=O)N[C@@H](Cc1c[nH]c2ccccc12)C(=O)N[C@@H](CC(C)C)C(=O)N[C@H](C(=O)N[C@@H](CCCCN)C(=O)NCC(=O)N[C@@H](CCCNC(=N)N)C(=O)NCC(=O)NCC(=O)N[C@@H](CCCCN)C(=O)NCC(=O)N[C@@H](Cc1ccccc1)C(=O)N[C@H]1CSSC[C@@H](C(=O)N[C@@H](Cc2ccc(O)cc2)C(=O)NCC(=O)O)NC(=O)[C@H](CCC(N)=O)NC(=O)[C@@H]2CCCN2C(=O)[C@@H]2CCCN2C(=O)[C@H]([C@@H](C)CC)NC(=O)[C@H](CO)NC(=O)[C@H](Cc2ccc(O)cc2)NC(=O)[C@H]([C@@H](C)O)NC1=O)C(C)C` [D-GLP-1-CH10], for which, in data set [1], the “Remaining peak area (%)/human serum” value is on record as 100.0 ± 0.0%; the “serum stability (in words)” value is on record as “more stable in serum”; the amount remaining at 0.5 h, 0.03 mM amounted to 98.4 ± 7.3%; the share remaining at 2 h, 0.03 mM was 94.6 ± 2.1%. In data set [1], the fraction remaining at 4 h, 0.03 mM was 101 ± 5.5%; the amount remaining at 8 h, 0.03 mM worked out at 91.6 ± 6.8%; the amount remaining at 12 h, 0.03 mM is 43.7 ± 2.1%. Moreover, in data set [2], the “stability towards chymotrypsin hydrolysis (in words)” value was “lower residual amount”; the amount remaining at 0.025 h, 60 μM is 33.4 ± 1.7%; the fraction remaining at 0.05 h, 60 μM was 32.6 ± 0.7%; the share remaining at 0.075 h, 60 μM was 28.9 ± 1.1%. In data set [2], the fraction remaining at 0.1 h, 60 μM worked out at 31.9 ± 2.9%; the fraction remaining at 0.15 h, 60 μM is 31.3 ± 0.8%; the fraction remaining at 0.25 h, 60 μM turned out to be 30.9 ± 1%; the fraction remaining at 0.5 h, 60 μM came to 32.6 ± 0.6%. Besides, the amount remaining at 1 h, 60 μM in data set [2] was 36.2 ± 1.4%. In data set [3], the “Remaining peak area (%)/DPP-IV” value amounted to 100.0 ± 0.0%; the amount remaining at 0.5 h, 25 μM was found to be 64.9 ± 3.7%; the fraction remaining at 2 h, 25 μM was found to be 66.2 ± 1%; the amount remaining at 4 h, 25 μM came to 69.3 ± 3.3%. Further, in data set [3], the fraction remaining at 8 h, 25 μM came out at 70.8 ± 0.4% and the amount remaining at 12 h, 25 μM is 74.4 ± 0.3%.
In data set [4], `CC[C@H](C)[C@@H]1NC(=O)[C@@H]2CCCN2C(=O)[C@@H](N)CSSC[C@@H](C(=O)N[C@@H](CCC(N)=O)C(=O)O)NC(=O)[C@H]([C@@H](C)CC)NC(=O)[C@@H]2CCCN2C(=O)[C@@H]2CCCN2C(=O)[C@H]([C@@H](C)CC)NC(=O)[C@H](CO)NC(=O)[C@H](C)NC(=O)[C@H]([C@@H](C)O)NC(=O)[C@H](C)NC1=O` [EC44] (H-CPIATASIPPICQ-OH; disulfide 1-12) had a 50% inhibitory concentration (IC50) of more than 50000 nM.
For `CC[C@H](C)[C@@H]1NC(=O)[C@@H]2CCCN2C(=O)[C@@H]2CCCN2C(=O)[C@H]([C@@H](C)CC)NC(=O)[C@H](CO)NC(=O)[C@H](C)NC(=O)[C@H]([C@@H](C)O)NC(=O)[C@@H](NC(=O)[C@@H](N)C(C)C)CSSC[C@@H](C(=O)N[C@@H](CCC(N)=O)C(=O)O)NC1=O` [EC22] (H-VCTASIPPICQ-OH; disulfide 2-10; C-terminus assumed), the IC50 in data set [4] was 400 nM. For the same molecule, the “Residual activity of elastase” value came to 100.1 ± 1.0% in data set [4] (peptide 0.001 μM); 99.8 ± 0.3% in data set [4] (peptide 0.01 μM); 92.0 ± 6.8% in data set [4] (peptide 0.1 μM); 70.8 ± 4.3% in data set [4] (peptide 0.2 μM); 51.6 ± 1.7% in data set [4] (peptide 0.4 μM); 20.4 ± 1.2% in data set [4] (peptide 1 μM). Besides, the “Residual activity of elastase” value in data set [4] (peptide 10 μM) is listed as 2.4 ± 0.2%; in data set [4] (peptide 100 μM), 0.0 ± 0.0%; in data set [4] (peptide 1000 μM), −0.2 ± 0.2%. Besides, in data set [4], the Ki turned out to be 110 nM.
Turning to `CC[C@H](C)[C@@H]1NC(=O)[C@H](CO)NC(=O)[C@H](C)NC(=O)[C@H]([C@@H](C)O)NC(=O)[C@@H](NC(=O)[C@H](CC(C)C)NC(=O)CNC(=O)CNC(=O)[C@@H](NC(=O)[C@@H]2CCCN2C(=O)[C@@H]2CCCN2C(=O)[C@@H](NC(=O)[C@H](CC(=O)O)NC(=O)[C@H](C)NC(=O)CNC(=O)[C@@H](N)CCC(N)=O)[C@@H](C)O)C(C)C)CSSC[C@@H](C(=O)N[C@@H](Cc2ccc(O)cc2)C(=O)O)NC(=O)[C@H](CCC(N)=O)NC(=O)[C@@H]2CCCN2C(=O)[C@@H]2CCCN2C1=O` [EC49] (H-QGADTPPVGGLCTASIPPQCY-OH; disulfide 12-20; N-terminus and C-terminus assumed), the Ki in data set [4] amounted to 280 nM.
